Activity calls are given as the source filed them. The calls are words filed in the database; no cut-off is given here. Peptide text beside a SMILES is read from it.
What was measured:
Homo sapiens [1] = species: Homo sapiens; assay: Inhibition of FITC-labelled LANA (1 to 23 residues) binding to recombinant human H2A/H2B harboring acidic patch at by fluorescence polarization assay
HeLa = assay: (§1) Inhibition of FITC-labelled LANA peptide (1 to 23 residues) binding to human HeLa mononucleosomes by fluorescence polarization assay
[2] = as §1
Homo sapiens [3] = species: Homo sapiens; assay: Inhibition of FITC-labelled LANA (1 to 23 residues) binding to recombinant human H2A/H2B harboring acidic patch at 100 uM by fluorescence polarization assay relative to control

Compound | inhibition (Homo sapiens [1]) | other results
CSCC[C@@H]1NC(=O)CNC(=O)[C@@H]2CCCN2C(=O)[C@H](C)NC(=O)CNC(=O)[C@H]([C@@H](C)O)NC(=O)[C@H](CO)NC(=O)[C@H](CCCNC(=N)N)NC(=O)CNC(=O)[C@H](CO)NC(=O)[C@H](CCCNC(=N)N)NC(=O)[C@H](CC(C)C)NC(=O)[C@H](CCCNC(=N)N)NC1=O (cyclo(APGMRLRSGRSTG)) | Active | –
CSCC[C@@H]1NC(=O)CNC(=O)CNC(=O)[C@H]([C@@H](C)O)NC(=O)[C@H](CO)NC(=O)[C@H](CCCNC(=N)N)NC(=O)CNC(=O)[C@H](CO)NC(=O)[C@H](CCCNC(=N)N)NC(=O)[C@H](CC(C)C)NC(=O)[C@H](CCCNC(=N)N)NC1=O (cyclo(GGMRLRSGRST)) | – | inhibition (HeLa): Dose-dependent effect; IC50 [2]: 204 nM; Ki [2]: 61 nM; inhibition (Homo sapiens [3]): 100%
CSCC[C@@H]1NC(=O)[C@H]([C@@H](C)O)NC(=O)[C@H](CO)NC(=O)[C@H](CCCNC(=N)N)NC(=O)CNC(=O)[C@H](CO)NC(=O)[C@H](CCCNC(=N)N)NC(=O)[C@H](CC(C)C)NC(=O)[C@H](CCCNC(=N)N)NC1=O (cyclo(GRSTMRLRS)) | Active | –
Ac-GMRLRSGRSTG-NH2 | Active | inhibition (HeLa): Dose-dependent effect; IC50 [2]: 614 nM
Ac-MRLRSGRST-NH2 | Active | –
Ac-PGFRLRSGRSTGA-NH2 | Active | –
Ac-PGIRLRSGRSTGA-NH2 | Active | –
Ac-PGLRLRSGRSTGA-NH2 | Active | –
Ac-PGMRLRSGRSHGA-NH2 | Active | –
Ac-PGMRLRSGRSKGA-NH2 | Active | –
Ac-PGMRLRSGRSRGA-NH2 | Active | –
Ac-PGMRLRSGRSTGA-NH2 | – | inhibition (Homo sapiens [3]): 40%
Ac-PGVRLRSGRSTGA-NH2 | Active | –

Reference: ChEMBL document CHEMBL4602652, “Development of cyclic peptide derivatives from the N-terminal region of LANA for targeting the nucleosome acidic patch” (Bioorg Med Chem Lett, 2020)
